Reference: patent US20240376076A1, “INHIBITORS TARGETING UBIQUITIN SPECIFIC PROTEASE 7 (USP7)” (Dana-Farber Cancer Institute, Inc., priority 2021, published 2024)

How the values were obtained:
[1] = target: T1, USP7, Active human recombinant protein (Homo sapiens, UniProt Q93009); assay: USP7 assay (Ubiquitin-Rhodamine 110 enzymatic assay); assay type: biochemical; details: read-out: IC50
T1 construct: purchased CP Lot; 20200225001
Outline: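 Kinetic 20-min fluorescence read (485/535 nm) of ubiquitin-rhodamine 110 (190 nM final) cleavage by 0.05 nM USP7 gave slopes. Compounds, 10 concentrations in 3-fold steps, had 15 min RT preincubation with enzyme first. Inhibition relative to max (enzyme+substrate) and min (substrate only) signals, fitted to IC50.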

[2] = mouse liver microsomal stability (Microsome Assay Protocol); assay type: in vitro ADME; details: pH 7.4; mouse liver microsomes, NADPH, 37° C.; read-out: MLM t1/2, min
Method: ND refers to not disclosed.
• 1. Buffer A: 1.0 L of 0.1 M monobasic Potassium Phosphate buffer containing 1.0 mM EDTA Buffer B: 1.0 L of 0.1 M Dibasic Potassium Phosphate buffer containing 1.0 mM EDTA • Buffer C: 0.1 M Potassium Phosphate buffer, 1.0 mM EDTA, pH 7.4 by titrating 700 mL of buffer B with buffer A while monitoring with a pH meter. • 2. Reference compound (Ketanserin) and test compounds spiking solution: • 500 μM spiking solution: added 10 μL of 10 mM DMSO stock solution into 190 μL ACN. • 1.5 μM spiking solution in microsomes (0.75 mg/mL): added 1.5 μL of 500 μM spiking solution and 18.75 μL of 20 mg/mL liver microsomes into 479.75 μL of Buffer C on ice. • 3. Prepared NADPH stock solution (6 mM) by dissolving NADPH into buffer C. Dispensed 30 μL of 1.5 μM spiking solution containing 0.75 mg/mL microsomes solution to the assay plates designated for different time points (0-, 5-, 15-, 30-, 45-min) on ice. For 0-min, added 135 μL of ACN containing IS to the wells of 0-min plate and then added 15 μL of NADPH stock solution (6 mM). Pre-incubated all other plates at 37° C. for 5 minutes. Added 15 μL of NADPH stock solution (6 mM) to the plates to start the reaction and timing. At 5-min, 15-min, 30-min, and 45-min, added 135 μL of ACN containing IS to the wells of corresponding plates, respectively, to stop the reaction. After quenching, shook the plates at the vibrator (IKA, MTS 2/4) for 10 min (600 rpm/min) and then centrifuged at 5594 g for 15 min (Thermo Multifuge×3R). Transferred 50 μL of the supernatant from each well into a 96-well sample plate containing 50 μL of ultra pure water (Millipore, ZMQS50F01) for LC/MS analysis.

T1 sequence (Q93009 whole entry): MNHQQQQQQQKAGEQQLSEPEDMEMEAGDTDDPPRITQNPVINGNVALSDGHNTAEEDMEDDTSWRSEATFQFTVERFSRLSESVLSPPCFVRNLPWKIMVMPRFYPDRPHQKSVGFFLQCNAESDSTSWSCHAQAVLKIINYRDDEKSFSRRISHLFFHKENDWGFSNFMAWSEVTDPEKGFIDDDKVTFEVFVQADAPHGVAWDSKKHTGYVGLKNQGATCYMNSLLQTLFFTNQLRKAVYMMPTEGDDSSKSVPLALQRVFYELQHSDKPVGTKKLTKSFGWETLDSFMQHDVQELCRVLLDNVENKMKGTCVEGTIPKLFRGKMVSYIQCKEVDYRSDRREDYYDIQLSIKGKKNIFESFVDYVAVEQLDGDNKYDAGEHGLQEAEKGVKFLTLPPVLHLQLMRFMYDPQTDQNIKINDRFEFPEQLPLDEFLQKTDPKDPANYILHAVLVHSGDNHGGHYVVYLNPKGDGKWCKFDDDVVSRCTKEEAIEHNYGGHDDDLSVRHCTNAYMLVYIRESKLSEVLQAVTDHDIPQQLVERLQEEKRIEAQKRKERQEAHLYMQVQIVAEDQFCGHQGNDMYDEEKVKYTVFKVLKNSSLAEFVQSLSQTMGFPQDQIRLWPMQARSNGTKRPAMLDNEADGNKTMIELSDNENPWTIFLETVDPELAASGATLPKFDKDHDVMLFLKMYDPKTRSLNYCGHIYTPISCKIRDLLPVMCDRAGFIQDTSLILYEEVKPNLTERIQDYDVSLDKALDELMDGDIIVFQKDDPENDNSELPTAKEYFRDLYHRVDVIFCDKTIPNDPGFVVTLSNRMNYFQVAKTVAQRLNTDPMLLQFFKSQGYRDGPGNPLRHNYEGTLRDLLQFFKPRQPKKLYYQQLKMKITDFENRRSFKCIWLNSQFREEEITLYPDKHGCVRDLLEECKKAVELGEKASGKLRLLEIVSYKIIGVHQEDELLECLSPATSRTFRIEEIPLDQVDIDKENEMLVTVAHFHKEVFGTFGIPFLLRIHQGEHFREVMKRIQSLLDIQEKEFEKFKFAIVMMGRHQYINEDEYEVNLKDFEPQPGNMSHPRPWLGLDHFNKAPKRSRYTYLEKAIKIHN

For Cn1nc2c(=O)n(CC3(O)CCN(C(=O)C(CCCNC(=O)c4ccc5c(Cl)ccnc5c4)Cc4ccccc4)CC3)cnc2c1-c1cccc(C#N)c1 (centres unmarked) [Compound 10, N-(4-benzyl-5-(4-((3-(3-cyanophenyl)-2-methyl-7-oxo-2,7-dihydro-6H-pyrazolo[4,3-d]pyrimidin-6-yl)methyl)-4-hydroxypiperidin-1-yl)-5-oxopentyl)-4-chloroquinoline-7-carboxamide], the IC50 [1] was 20 to 100 nM and the half-life at 1 µM [2] was 1.5 min.

Compound CN(C)CC(=O)Nc1ccc2c(=O)n(CC3(O)CCN(C(=O)C(CCCNC(=O)c4ccc5c(Cl)c6c(nc5c4)CCN(C)C6)Cc4ccccc4)CC3)cnc2c1 (centres unmarked) [Compound 32, N-(4-benzyl-5-(4-((7-(2-(dimethylamino)acetamido)-4-oxoquinazolin-3(4H)-yl)methyl)-4-hydroxypiperidin-1-yl)-5-oxopentyl)-10-chloro-2-methyl-1,2,3,4-tetrahydrobenzo[b][1,6]naphthyridine-7-carboxamide] has an IC50 [1] of 20 to 100 nM and a half-life at 1 µM [2] of 2.5 min.

CN(C)CCC(=O)Nc1ccc2c(=O)n(CC3(O)CCN(C(=O)C(Cc4ccccc4)c4cccc(NC(=O)c5ccc6c(Cl)ccnc6c5)c4)CC3)cnc2c1 (centres unmarked) [Compound 72] showed an IC50 [1] of 100 to 1000 nM and a half-life at 1 µM [2] of 29.5 min.

In the case of CN1CCN(CC(=O)Nc2ccc3c(=O)n(CC4(O)CCN(C(=O)C(CCCNC(=O)c5ccc6c(Cl)ccnc6c5)Cc5ccccc5)CC4)cnc3c2)CC1 (centres unmarked) [Compound 29, N-(4-benzyl-5-(4-hydroxy-4-((7-(2-(4-methylpiperazin-1-yl)acetamido)-4-oxoquinazolin-3(4H)-yl)methyl)piperidin-1-yl)-5-oxopentyl)-4-chloroquinoline-7-carboxamide], the IC50 [1] is reported as 20 to 100 nM and the half-life at 1 µM [2] is reported as 16.7 min.

O=C(NCCCC(Cn1ccc(F)n1)C(=O)N1CCC(O)(Cn2cnc3ccccc3c2=O)CC1)c1ccc2c(Cl)c(C(=O)NC3CC3)cnc2c1 (centres unmarked) showed an IC50 [1] of 20 to 100 nM and a half-life at 1 µM [2] of 4.61 min.

Compound CN(C)CCCOc1ccc2c(=O)n(CC3(O)CCN(C(=O)[C@H](CCCNC(=O)c4ccc5c(Cl)c(C#N)cnc5c4)Cc4ccccc4)CC3)cnc2c1 has an IC50 [1] of under 20 nM and a half-life at 1 µM [2] of 1.67 min.

NC(=O)c1cnc2cc(C(=O)NCCCC(Cn3ccc(F)n3)C(=O)N3CCC(O)(Cn4cnc5ccccc5c4=O)CC3)ccc2c1Cl (centres unmarked) showed an IC50 [1] of 20 to 100 nM and a half-life at 1 µM [2] of 6.51 min.

Cc1cc(Cl)c2ccc(C(=O)NCCCC(Cc3ccccc3)C(=O)N3CCC(O)(Cn4cnc5cc(NC(=O)CCN(C)C)ccc5c4=O)CC3)cc2n1 (centres unmarked) [Compound 49, N-(4-benzyl-5-(4-((7-(3-(dimethylamino)propanamido)-4-oxoquinazolin-3(4H)-yl)methyl)-4-hydroxypiperidin-1-yl)-5-oxopentyl)-4-chloro-2-methylquinoline-7-carboxamide] gave an IC50 [1] of under 20 nM and a half-life at 1 µM [2] of 13.5 min.

With CN(C)CCCOc1ccc2c(=O)n(CC3(O)CCN(C(=O)C(CCCNC(=O)c4ccc5c(Cl)c(C(=O)NC6CC6)cnc5c4)Cn4ccc(F)n4)CC3)cnc2c1 (centres unmarked) the IC50 [1] was under 20 nM and the half-life at 1 µM [2] was 152 min.

With CN(C)CCCOc1ccc2c(=O)n(CC3(O)CCN(C(=O)C(CCCNC(=O)c4ccc5c(Cl)c6c(nc5c4)C(C)(C)NC6=O)Cc4ccccc4)CC3)cnc2c1 (centres unmarked) the IC50 [1] was over 1000 nM and the half-life at 1 µM [2] was 16.3 min.

For CN(C)CCCOc1ccc2c(=O)n(CC3(O)CCN(C(=O)C(CCCNC(=O)c4ccc5c(Cl)c(CO)cnc5c4)Cc4ccccc4)CC3)cnc2c1 (centres unmarked), the IC50 [1] was under 20 nM and the half-life at 1 µM [2] was 57.6 min.

Work on CN1CCN(CCC(=O)Nc2ccc3c(=O)n(CC4(O)CCN(C(=O)C(CCCNC(=O)c5ccc6c(Cl)cc(C7(F)CC7)nc6c5)Cc5ccccc5)CC4)cnc3c2)CC1 (centres unmarked) [Compound 21, N-(4-benzyl-5-(4-hydroxy-4-((7-(3-(4-methylpiperazin-1-yl)propanamido)-4-oxoquinazolin-3(4H)-yl)methyl)piperidin-1-yl)-5-oxopentyl)-4-chloro-2-(1-fluorocyclopropyl)quinoline-7-carboxamide] yielded an IC50 [1] of over 1000 nM and a half-life at 1 µM [2] of 18.5 min.

CN(C)CCCOc1ccc2c(=O)n(CC3(O)CCN(C(=O)C(Cn4ccc(F)n4)N(C)CCNC(=O)c4ccc5c(Cl)c(C(N)=O)cnc5c4)CC3)cnc2c1 (centres unmarked) showed an IC50 [1] of 20 to 100 nM and a half-life at 1 µM [2] of 106 min.

Compound CN(C)CCCOc1ccc2c(=O)n(CC3(O)CCN(C(=O)[C@@H](CCCNC(=O)c4ccc5c(Cl)c(C(N)=O)cnc5c4)Cc4ccccc4)CC3)cnc2c1 has an IC50 [1] of under 20 nM and a half-life at 1 µM [2] of 30.2 min.

Work on CN(C)CCCOc1ccc2c(=O)n(CC3(O)CCN(C(=O)[C@H](CCCNC(=O)c4ccc5c(Cl)c6c(nc5c4)CC(C)(C)C6)Cc4ccccc4)CC3)cnc2c1 [Compound 121] yielded an IC50 [1] of under 20 nM and a half-life at 1 µM [2] of 6 min.

CN(C)CCCOc1ccc2c(=O)n(CC3(O)CCN(C(=O)C(CCCNC(=O)c4ccc5c(Cl)c6c(nc5c4)CN(C)C6=O)Cc4ccccc4)CC3)cnc2c1 (centres unmarked) showed an IC50 [1] of under 20 nM and a half-life at 1 µM [2] of 11.3 min.

For CN(C)CCCOc1ccc2c(=O)n(CC3(O)CCN(C(=O)[C@H](CCCNC(=O)c4cnc5c(Cl)ccnc5c4)Cc4ccccc4)CC3)cnc2c1, the IC50 [1] was 100 to 1000 nM and the half-life at 1 µM [2] was 44 min.

In the case of CN(C)CCC(=O)Nc1ccc2c(=O)n(CC3(O)CCN(C(=O)C(CCCNC(=O)c4ccc5c(Cl)c6c(nc5c4)COCC6)Cc4ccccc4)CC3)cnc2c1 (centres unmarked) [Compound 89], the IC50 [1] is reported as 20 to 100 nM and the half-life at 1 µM [2] is reported as 3.34 min.

With CN(C)CCC(=O)Nc1ccc2c(=O)n(CC3(O)CCN(C(=O)c4cn(CCNC(=O)c5ccc6c(Cl)ccnc6c5)nc4-c4ccccc4)CC3)cnc2c1 [Compound 55, 4-chloro-N-(2-(4-(4-((7-(3-(dimethylamino)propanamido)-4-oxoquinazolin-3(4H)-yl)methyl)-4-hydroxypiperidine-1-carbonyl)-3-phenyl-1H-pyrazol-1-yl)ethyl)quinoline-7-carboxamide] the IC50 [1] was over 1000 nM and the half-life at 1 µM [2] was 35.6 min.

For CN(C)CCCOc1ccc2c(=O)n(CC3(O)CCN(C(=O)C(Cc4ccccc4)N(C)CCNC(=O)c4ccc5c(Cl)c(C(=O)NC6CC6)cnc5c4)CC3)cnc2c1 (centres unmarked), the IC50 [1] was 20 to 100 nM and the half-life at 1 µM [2] was 46.5 min.

Compound CC(C)c1cc(Cl)c2ccc(C(=O)NCCC[C@H](Cc3ccccc3)C(=O)N3CCC(O)(Cn4cnc5cc(OCCCN(C)C)ccc5c4=O)CC3)cc2n1 [Compound 120] has an IC50 [1] of under 20 nM and a half-life at 1 µM [2] of 5.89 min.

In the case of CN1CCN(CCC(=O)Nc2ccc3c(=O)n(CC4(O)CCN(C(=O)C(CCCNC(=O)c5ccc6c(Cl)cc(-c7ccc(F)cc7)nc6c5)Cc5ccccc5)CC4)cnc3c2)CC1 (centres unmarked), the IC50 [1] is reported as 100 to 1000 nM and the half-life at 1 µM [2] is reported as 22.7 min.

CN(C)CCCOc1ccc2c(=O)n(CC3(O)CCN(C(=O)[C@@H](CCCNC(=O)c4ccc5c(Cl)c(C(=O)NC6CC6)cnc5c4)Cc4ccccc4)CC3)cnc2c1 gave an IC50 [1] of under 20 nM and a half-life at 1 µM [2] of 62.4 min.

Compound O=C(NCCCC(Cc1ccccc1)C(=O)N1CCC(O)(Cn2cnc(NCCN3CCCC3)cc2=O)CC1)c1ccc2c(Cl)ccnc2c1 (centres unmarked) [Compound 11, N-(4-benzyl-5-(4-hydroxy-4-((6-oxo-4-(2-(pyrrolidin-1-yl)ethylamino)pyrimidin-1(6H)-yl)methyl)piperidin-1-yl)-5-oxopentyl)-4-chloroquinoline-7-carboxamide] has an IC50 [1] of 20 to 100 nM and a half-life at 1 µM [2] of 12.1 min.

CN(C)CCCOc1ccc2c(=O)n(CC3(O)CCN(C(=O)C(Cc4ccccc4)NCCNC(=O)c4ccc5c(Cl)c(C(N)=O)cnc5c4)CC3)cnc2c1 (centres unmarked) showed an IC50 [1] of under 20 nM and a half-life at 1 µM [2] of 65.5 min.

Cc1nc2c(=O)n(CC3(O)CCN(C(=O)C4CCN(CCNC(=O)c5ccc6c(Cl)ccnc6c5)CC4c4ccccc4)CC3)cnc2n1-c1ccc(F)cc1 (centres unmarked) [Compound 110] gave an IC50 [1] of 100 to 1000 nM and a half-life at 1 µM [2] of 2.21 min.

Compound Nc1ccc(-n2ncc3c(=O)n(CC4(O)CCN(C(=O)C(CCCNC(=O)c5ccc6c(Cl)ccnc6c5)Cc5ccccc5)CC4)cnc32)cc1 (centres unmarked) [Compound 7, N-(5-(4-((1-(4-aminophenyl)-4-oxo-1,4-dihydro-5H-pyrazolo[3,4-d]pyrimidin-5-yl)methyl)-4-hydroxypiperidin-1-yl)-4-benzyl-5-oxopentyl)-4-chloroquinoline-7-carboxamide] has an IC50 [1] of under 20 nM and a half-life at 1 µM [2] of 4.3 min.

In the case of CN(C)CCCOc1ccc2c(=O)n(CC3(O)CCN(C(=O)[C@H](CCCNC(=O)c4ccc5c(Cl)c(C6CC6)cnc5c4)Cc4ccccc4)CC3)cnc2c1, the IC50 [1] is reported as under 20 nM and the half-life at 1 µM [2] is reported as 31.9 min.
